Entries after “also recorded” stand apart in the source; their conditions may differ. Like-named read-outs stand apart in the source and are kept apart here.
How the values were obtained:
[1] = system: S. invicta workers; experiment: Dismemberment behavioural assay; type: in vivo, Solenopsis invicta; conditions: for dismemberment behaviour towards freeze-killed ants treated with the compound: healthy / untreated and GFP-RNAi workers, compared to freeze-killed control ants; for corpse dismemberment, RNAi targeting SiOBP15 + SiApoLp-III: dual RNAi; for corpse dismemberment, RNAi targeting SiOBP15 + SiApoLp-III / corpse dismemberment, RNAi targeting SiApoLp-III / corpse dismemberment, RNAi targeting SiFABP5 / corpse dismemberment, RNAi targeting SiOBP15 / corpse dismemberment, GFP RNAi (control) workers: freeze-killed corpses + chemical; for corpse dismemberment, RNAi targeting SiOBP15 + SiApoLp-III / corpse dismemberment, RNAi targeting SiApoLp-III / corpse dismemberment, RNAi targeting SiFABP5 / corpse dismemberment, RNAi targeting SiOBP15: compared to freeze-killed workers treated with the same chemical; for corpse dismemberment, GFP RNAi (control) workers: compared to freeze-killed, no additions; for effect on behaviour: corpse-dismemberment of freeze-killed conspecifics treated with the chemical
Protocol: Fresh corpses of workers killed by either rapid immersion in liquid nitrogen were collected and maintained at −80°C until use. Infection was performed by immersing workers for 5 s in 1 × 10^8 suspensions of fungal conidia. Infected workers were kept in isolated boxes until mortality (3–4 days) and were then used immediately for dismemberment assays. Each technical replicate of a dismemberment assay used five workers selected from different treatment groups (i.e. killed by freezing, killed by B. bassiana or subjected to another treatment as indicated). Of the five ‘killed’ workers, […] near the edge of the container in a ‘+’ pattern of a plastic container (9 cm diameter) and one in the centre. To each container was added 15 healthy workers or 15 workers treated as described below (e.g. RNAi treated). Containers contained an Eppendorf tube with a sterile solution of 5% sucrose. Corpse-dismemberment behaviour was assessed every 12 h for three consecutive days, and corpse limbs or other parts that were dismembered were counted. The corpse-dismemberment percentage was calculated by dividing the total number of dismembered parts (5 corpses × 10 body parts/each cage/3 days). Each experiment contained three technical replicates, and the entire experiment was repeated at least three times.
The specific dsRNA primers used in this study were synthesized using an in vitro transcription T7 kit (TAKARA, Dalian, China; electronic supplementary material, table S1). dsRNA concentrations were measured using a NanoVue Plus spectrophotometer (GE Healthcare Life Sciences, Little Chalfont, UK). In total, 50 nl of dsRNA of either the target genes or DsRNA-GFP (control) at indicated concentrations (up to 3000 ng μl^−1) were injected into each worker. Dismemberment assays were performed as above with three technical replicates, and each experiment was repeated at least three times using three different batches of ants. RNAi efficiencies was analysed by qRT-PCR.

[2] = biological target: SiOBP15 + SiApoLp III (Solenopsis invicta, UniProt F1DI94); experiment: 1-NPN fluorescent binding / competition assay, SiOBP15 co-incubated with SiApoLp-III
SiOBP15 + SiApoLp III, sequence (F1DI94 entry or part of it): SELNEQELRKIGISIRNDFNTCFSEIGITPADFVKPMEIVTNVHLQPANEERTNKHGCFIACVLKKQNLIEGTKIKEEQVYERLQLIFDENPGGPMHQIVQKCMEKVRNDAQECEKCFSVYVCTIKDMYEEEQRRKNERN
SiOBP15 + SiApoLp III, sequence (Q6B972 entry or part of it, further chain): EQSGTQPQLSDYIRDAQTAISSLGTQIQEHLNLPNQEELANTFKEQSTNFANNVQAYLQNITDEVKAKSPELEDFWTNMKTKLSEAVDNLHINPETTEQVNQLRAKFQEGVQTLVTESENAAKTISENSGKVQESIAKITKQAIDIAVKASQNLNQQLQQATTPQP
Protocol: (§1) The ORFs corresponding to SiOBP15, SiApoLp-III and SiFABP5 were separately cloned into the pET28a expression vector as His-tag fusion proteins. The integrity of plasmid constructs was verified by sequencing and plasmids were transformed into the Escherichia coli BL21 strain for heterologous protein expression. Proteins were purified using a nickel affinity (NI) resin (Ni-Sepharose Cl-6B agarose) according to the manufacturer’s protocol. Purified proteins were analysed by SDS–PAGE for purity and further confirmed by western blotting using an anti-His tag antibody as the probe. His-tags were removed by protease cleavage, and after determining final protein concentrations, aliquots of the purified protein samples were maintained at −80°C. Protein–protein interactions between SiOBP15 and SiApoLp-III and SiOBP15 and SiFABP5 were analysed using open surface plasmon resonance (SPR) by coupling the SiOBP15 protein (ligand) to a COOH chip until saturation. Purified SiFABP5 and SiApoLp-III proteins (analytes) were then added to analyse the kinetics of the interaction between these proteins. Binding kinetics were analysed by titration of the proteins. All experiments were performed three times with the same ‘chip’, and the entire experiment was repeated with three independent COOH-SiOBP15 chip. Dissociation constants were calculated using TraceDrawer (Ridgeview Instruments ab, Sweden) with a one-to-one interaction model.
(§2) N-phenyl-1-naphthylamine (1-NPN) was used as a probe for competition (displacement) based fluorescent binding assays as previously described. Samples were analysed using a Hitachi F-2000 fluorescence spectrophotometer at an excitation wavelength of 350 nm and an emission wavelength of 420 nm. The binding constant of the purified proteins to 1-NPN was determined over a substrate concentration range from 2 to 20 μM using 1.0 μM protein in 10 mM HEPES, 100 mM NaCl buffer, pH 7.5. Subsequent competition/displacement assays using test ligands were performed using a concentration of 2 μM 1-NPN, 2 μM protein and 2−40 μM test ligand. Dissociation constants (Kd) for 1-NPN were calculated by Scatchard plot analyses using GraphPad Prism 8 Software (GraphPad, La Jolla, CA, USA). The dissociation constants of test ligands (Kapp) in 1-NPN competition assays were calculated using the concentration of test ligand required to displace 50% of the 1-NPN signal (IC50) values using the following equation: Kapp = (IC50)/(1 + (1 − NPN)/K1 – NPN).

[3] = biological target: SiOBP15 (Solenopsis invicta, UniProt F1DI94); experiment: 1-NPN fluorescent binding / competition (displacement) assay, purified SiOBP15; conditions: for binding to SiOBP15 (in words): 1-NPN competition, SiOBP15 alone
SiOBP15, sequence (F1DI94 entry or part of it): as the sequence (F1DI94 entry or part of it) above
Protocol: as §1, §2

[4] = biological target: SiOBP15 + SiFABP5 (Solenopsis invicta, UniProt F1DI94+Z9HHL8OTK9); experiment: 1-NPN fluorescent binding / competition assay, SiOBP15 co-incubated with SiFABP5; conditions: 1-NPN displacement; co-incubation of SiOBP15 with SiFABP5; read-out: Kapp, competition, SiOBP15 + SiFABP5
SiOBP15 + SiFABP5, sequence (F1DI94 23-162 limits assumed): as the sequence (F1DI94 entry or part of it) above
SiOBP15 + SiFABP5, sequence (Z9HHL8OTK9 1-133): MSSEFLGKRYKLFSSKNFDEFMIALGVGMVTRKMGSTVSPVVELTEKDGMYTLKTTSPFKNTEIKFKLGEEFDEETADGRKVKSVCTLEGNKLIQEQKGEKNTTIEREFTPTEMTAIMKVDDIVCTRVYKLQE
Protocol: as §1, with “His-tags were removed by protease cleavage, and after determining final protein concentrations, aliquots of the purified protein samples were maintained at −80°C.” left out, “Purified SiFABP5 and SiApoLp-III proteins (analytes) were then added to analyse the kinetics of the interaction between these proteins.” left out, “All experiments were performed three times with the same ‘chip’, and the entire experiment was repeated with three independent COOH-SiOBP15 chip.” left out
(§3) N-phenyl-1-naphthylamine (1-NPN) was used as a probe for competition (displacement) based fluorescent binding assays as previously described. Samples were analysed using a Hitachi F-2000 fluorescence spectrophotometer at an excitation wavelength of 350 nm and an emission wavelength of 420 nm. […]

[5] = biological target: SiFABP5 (Solenopsis invicta, UniProt Z9HHL8OTK9); experiment: 1-NPN fluorescent binding / competition assay, purified SiFABP5; conditions: 1-NPN displacement; 2 μM 1-NPN, 2 μM protein; read-out: Kapp, competition, SiFABP5
SiFABP5, sequence (Z9HHL8OTK9 1-133): as above
Protocol: as §1, with “His-tags were removed by protease cleavage, and after determining final protein concentrations, aliquots of the purified protein samples were maintained at −80°C.” left out, “Purified SiFABP5 and SiApoLp-III proteins (analytes) were then added to analyse the kinetics of the interaction between these proteins.” left out, “All experiments were performed three times with the same ‘chip’, and the entire experiment was repeated with three independent COOH-SiOBP15 chip.” left out
as §3

[6] = 1-NPN displacement; co-incubation of SiOBP15 with SiApoLp-III; read-out: Kapp, competition, SiOBP15 + SiApoLp III
[7] = 1-NPN displacement, 2 μM 1-NPN, 2 μM protein, 2-40 μM test ligand, read-out: Kapp, competition, SiOBP15
[8] = read-out: Kapp, competition, SiOBP15 + SiApoLp III; 1-NPN displacement; co-incubation of SiOBP15 with SiApoLp-III

Ki [2, 6] [µM] | binding to SiOBP15 (in words) [3] | Ki [3, 7] [µM] | binding to SiOBP15 incubated with SiApoLp-III (in words) ([2]; 1-NPN competition, complex) | Compound | dismemberment behaviour towards freeze-killed ants treated with the compound [1] | corpse dismemberment, RNAi targeting SiOBP15 + SiApoLp-III [1] | corpse dismemberment, RNAi targeting SiApoLp-III [1] | corpse dismemberment, RNAi targeting SiFABP5 [1] | corpse dismemberment, RNAi targeting SiOBP15 [1] | corpse dismemberment, GFP RNAi (control) workers [1] | further results
> 500 | No binding | > 500 |  | CCCCCCCC/C=C/CCCCCCCCCC(=O)O [trans-11-eicosenoic acid] | No significant effects; also recorded: did not alter dismemberment behaviour | no change^e | no change^e | no change^e | no change^e | no change^a | 
> 500 | able to bind | 25.8 | did not show binding | CCCCC/C=C\C/C=C\CCCCCCCC(=O)O [linoleic acid, cis,cis-9,12-linoleic acid] | significantly reduced | increased^c | no change^c | increased^c | increased^c | decreased^a | effect on behaviour [1]: inhibits dismemberment; dismemberment behaviour towards freeze-killed ants treated with the compound ([1]; listed as cis, cis-9,12-linoleic acid): inhibit this behaviour; dismemberment behaviour towards freeze-killed ants treated with the compound ([1]; listed as cis,cis-9,12-linoleic acid): significant decrease
> 500 |  | 15.2 |  | CCCCC=CCCO [3-octenol] |  |  |  |  |  |  | 
83.3 | binds | 26.5 | limited binding | CC(=O)C(C)O (stereo not shown) [acetoin] | No significant effects |  |  |  |  |  | 
70.9 | binds |  | limited binding | CC(=O)C(C)=O [2,3 butanedione] | No significant effects |  |  |  |  |  | 

The remaining lines, values behind:

Compound | Ki [2, 6] [µM] | binding to SiOBP15 (in words) [3] | Ki [3, 7] [µM] | binding to SiOBP15 incubated with SiApoLp-III (in words) ([2]; 1-NPN competition, complex) | dismemberment behaviour towards freeze-killed ants treated with the compound [1] | corpse dismemberment, RNAi targeting SiOBP15 + SiApoLp-III [1] | corpse dismemberment, RNAi targeting SiApoLp-III [1] | corpse dismemberment, RNAi targeting SiFABP5 [1] | corpse dismemberment, RNAi targeting SiOBP15 [1] | corpse dismemberment, GFP RNAi (control) workers [1] | further results
CCCCCCCCCCC/C=C/CCCCC(=O)O [trans-6-octadecenoic acid] |  |  |  |  | No significant effects |  |  |  |  |  | 
3-octenol |  | able to bind |  |  |  |  |  |  |  |  | Ki [4]: 12.6 µM; Ki [5]: 15.7 µM
CCCCCCCCCCCCCCCCCCCCCC(=O)O [behenic acid] |  |  |  |  | significant increase; also recorded: induced dismemberment behaviour; also recorded: induces corpse-dismemberment | decreased^b | decreased^b | no change^b | slight decrease^b | increased^a | effect on behaviour [1]: induces dismemberment; Ki [2, 8]: 19.3 µM; Ki [3]: 14 µM
c1ccc(Nc2cccc3ccccc23)cc1 [1-NPN, N-phenyl-1-naphthylamine, reference compound] |  |  |  |  |  |  |  |  |  |  | Kd ([2]; read-out: dissociation constant of 1-NPN to SiOBP15 + SiApoLp-III; co-incubation; modelled to single 1-NPN binding sites): 18.2 µM; Kd ([3]; Kd of 1-NPN to SiOBP15 (printed in figure 2C), SiOBP15+NPN, unit inferred): 16.9 µM; Kd ([3]; Kd of 1-NPN to SiOBP15, Scatchard analysis, 1.0 μM protein, 2 to 20 μM 1-NPN): 16.9 µM
CC1CCOC1=O (stereo not shown) [3-methyltetrahydro-2-furanone] |  |  |  |  | No significant effects |  |  |  |  |  | Ki [2, 8]: 57.2 µM; Ki [3]: 16 µM
CCCCCCCC/C=C\CCCCCCCC(=O)O [oleic acid] |  | able to bind |  | did not show binding | significant decrease; also recorded: reduced dismemberment behaviour; also recorded: inhibit this behaviour | no change^d | no change^d | no change^d | no change^d | decreased^a | effect on behaviour [1]: inhibits dismemberment; Ki [2, 8]: > 500 µM; Ki [3]: 15.5 µM
C=CC(=C)CCC=C(C)C [myrcene] |  |  |  |  | No significant effects |  |  |  |  |  | 
